Results taken from patent US20090247602A1, “COSMETIC USE OF CONJUGATED COMPOUNDS OF INDOLIC AUXINS” (EXSYMOL S.A.M., priority 2008, published 2009).

System: sensory neurons from explants of rachidian ganglia of rat embryos
Experiment: Neurotrophic activity test: neurite outgrowth of dissociated sensory neurons
Assay type: cell-based
Details: 72 hours incubation; for % compared to the control: control = case 1
Excerpt: In other respects, and forming the basis of the present invention, it has been discovered for a very small panel of structures limited to the only conjugates of aspartic and glutamic acids, an unexpected property that is a said-neurotrophic activity. This activity is also found in a class of endogenous proteins, the neurotrophins, and in particular in the “NGF” (or “nerve growth factor”), an essential growth and survival factor in the formation and the maintenance of the cutaneous nervous network (M. Bothwell, J. Invest. Dermatol. Symposium Proceedings (1997), vol. 2, pp. 27-30). This remarkable activity, without any connection with antioxidant properties of these compounds, has been evidenced through an in vitro test that consists in measuring the neurites outgrowth kinetics from rat embryos sensory neurons selected for their physiology very similar to the one of human sensory neurons.
Test: Evidence of the Neurotrophic Activity of Aminoacid Conjugates of Indolic Auxins
The experimental study has been achieved on dissociated sensory neurons from explants of rachidian ganglia of rat embryos, and prepared according to the method described by Hall A. K. and al (J. Neurosci. (1997), vol. 17, pp. 2775-2784). After dissection and dissociation, sensory neurons are at once incubated in the following culture media (in hexaplicate), according to three situations: • case 1: culture medium without NGF, and without active ingredient according to the invention (control) • case 2: culture medium without NGF, with an active ingredient according to the invention • case 3: culture medium with NGF (positive reference)
After an incubation time of 72 hours, cells are washed and fixed. They are then labelled by an anti β-tubulin antibody reacting with cellular bodies and outgrowths of neurons. After a disclosure with an Alexa Fluor 488 secondary antibody, colour picture inputs were proceeded (using “In Cell Analyzer 1000™”). These digital data are then used for measuring a relative density of neurite length compared to the non treated control (case 1).
The neurotrophic effect of tested compounds is expressed by an increase (in μm) of this density of neurite outgrowth of neurons, synonymous with a strengthended development kinetic of neuronal network and a better viability (survival) of this latter.

[1] = 0.12 mg/ml, medium without NGF (case 2)
[2] = 5.10^−6 mg/ml, medium with NGF (case 3, positive reference)

| Compound | Average density of neurite outgrowth of sensory neurons [1] | % compared to the control [1] | Average density of neurite outgrowth of sensory neurons [2] | % compared to the control [2] |
| --- | --- | --- | --- | --- |
| O=C(O)C[C@H](NC(=O)Cc1c[nH]c2ccccc12)C(=O)O [IAA-Asp] | 6820 μm | 108% | – | – |
| O=C(O)CC[C@H](NC(=O)Cc1c[nH]c2ccccc12)C(=O)O [IAA-Glu, indolyl-3-acetylglutamic acid] | 7335 μm | 117% | – | – |
| O=C(O)C[C@H](NC(=O)CCCc1c[nH]c2ccccc12)C(=O)O [IBA-Asp, indolyl-3-butyrylaspartic acid] | 8297 μm | 132% | – | – |
| O=C(O)CC[C@H](NC(=O)CCCc1c[nH]c2ccccc12)C(=O)O [IBA-Glu] | 7195 μm | 114% | – | – |
| O=C(O)C[C@H](NC(=O)CCc1c[nH]c2ccccc12)C(=O)O [IPA-Asp] | 6980 μm | 111% | – | – |
| O=C(O)CC[C@H](NC(=O)CCc1c[nH]c2ccccc12)C(=O)O [IPA-Glu] | 8247 μm | 131% | – | – |
| NGF: nerve growth factor, a neurotrophin; positive reference (case 3) | – | – | 11750 μm | 187% |
